Tests used:
KCNQ5 = target: T1, KCNQ5 (Homo sapiens, UniProt Q9NR82); test: Two-electrode voltage clamp of KCNQ5 homomers expressed in Xenopus oocytes; type: cell-based; conditions: for IC50: extracellular application, Xenopus oocytes, from plotted fit curves (Fig. 5A), means ± SEM of 4 to 12 measurements, read-out: IC50, inhibition of KCNQ5 homomers; for effect on KCNQ5 currents: 10 µM, oocytes injected with KCNQ5 alone (no M1 receptor)
T1 construct: expressed in transfected cells; host or cells: Xenopus oocytes injected with cRNA transcribed from the KCNQ5-containing pTLN vector
Text: Two-electrode voltage-clamp current traces from a Xenopus oocyte injected with KCNQ5 cRNA. […] Starting from a holding potential of -80 mV cells were clamped for 2 seconds to voltages between -80 and +40 mV, in +10 mV steps, followed by a constant test pulse to -30 mV; • Figs. 4A-G show the electrophysiological properties of KCNQ5. Both the splice variant I (found in brain) and splice variant III (found in muscle) were expressed in Xenopus oocytes and examined by two-electrode voltage clamping. Both variants activate slowly upon depolarisation, but form I (4A) initially activates slower than the muscle form III (4B). Starting from a holding potential of -80 mV, the voltage was stepped for 0.8 seconds to values between -100 and + 40 mV in steps of 10 mV, followed by a voltage step to -30 mV (see inset, panel A). Channel activation by depolarization was fitted (for 2 sec. steps) by a sum of three exponential functions. For a step to +20 mV, the rate constants were ô1 = 37. 2 ± 2.2 ms, ô2 = 246 ± 17 ms, and ô3 = 1112 ± 91 ms for splice variant I, while these constants were ô1 = 24.5 ± 0.8 ms, ô2 = 163 ± 6 ms, and ô3 = 1690 ± 46 ms (± SEM, n=16). This difference in kinetics also results in different curves when a typical M-current protocol is used (4C, variant I; 4D, variant III). Variant I induces currents that kinetically resemble M-currents. In this protocol, the membrane voltage is clamped for 1 second to voltages between -30 and -90 mV in steps of -10 mV, from a holding potential of -30 mV. This was followed by a step to -30 mV (panel C, inset). (4E, 4F), apparent open probabilities of variants I (4E) and variant III (4F) as a function of voltage obtained from tail current analysis as described in Methods. Mean values obtained from 12 oocytes are shown. Fitting a Boltzmann equation yielded V½ = -46 ± 1 mV and an apparent gating charge of z = 2.8 ± 0.1 for isoform I, and V½ = -48 ± 1 mV and an apparent gating charge of z = 2.5 ± 0.1 for isoform III. For this fit, values at potentials more positive than +10 mV were excluded, as these are probably affected by a second (inactivation) gating process which leads to a decrease of apparent Popen at more positive potentials. (4G), ion selectivity of KCNQ5 currents (variant I). Extracellular sodium was replaced by equimolar amounts of potassium. The reversal potential is shown as a function of the potassium concentration. […] Data are from 10 oocytes from 2 different batches; • Figs. 5A-C show the pharmacology of KCNQ5 and KCNQ3/5 heteromers. (5A) Inhibition of KCNQ5 homomers by extracellular linopirdine (down triangles), XE991 (up triangles) and TEA (squares). […] (5B) Niflumic acid alters the voltage dependence of the apparent popen. In the presence of 500 µM niflumic acid (open circles), the voltage dependence is shifted about 20 mV towards negative potentials. (5C) TEA sensitivity is altered in KCNQ3/5 heteromers. Coexpression of KCNQ5 and KCNQ3 (1:1) (diamonds) increased the IC50 value to 200 mM, coexpression with the KCNQ3 (T323Y) mutant (circles) decreased the IC50 to ~ 30 mM. […] The pulse protocol is shown in the inset of panel b. No effect of 10 µM muscarine or oxotremorine methiodide was found in oocytes injected with KCNQ5 alone; and • Figs. 7A-C show the interactions between KCNQ2 and KCNQ5 (7A, 7B) and KCNQ3 and KCNQ5 (7C): • (7A) currents at the end of a two second pulse to 0 mV from a holding potential of -80 mV of oocytes injected with different combinations of KCNQ cRNAs (always 10 ng total amount of RNA). The current amplitude elicited by co-injecting KCNQ2 and KCNQ5 could be explained by a linear superposition of currents. Co-injection of KCNQ5 with the dominant negative mutant KCNQ2(G279S) or of KCNQ2 with the equivalent mutant KCNQ5(G278S) lead to a roughly 50% reduction in current amplitude, which is consistent with a lack of interaction since only 50% of WT cRNA was injected; • (7B) normalized current traces of experiments used for panel (A). […]

KCNQ2/KCNQ3 channels = KCNQ2/KCNQ3 channels (Homo sapiens, UniProt O43525+O43526); conditions: 200 µM; cited from earlier work
[1] = target: T2, KCNQ5 coexpressed with KCNQ3 (T323Y) mutant (Homo sapiens, UniProt O43525+Q9NR82, T323Y); test: Two-electrode voltage clamp of KCNQ5 coexpressed with the KCNQ3 (T323Y) mutant in Xenopus oocytes; type: cell-based; conditions: coexpression of KCNQ5 with the KCNQ3 (T323Y) mutant; Fig. 5C; read-out: IC50 (TEA sensitivity)
T2 construct: expressed in transfected cells; host or cells: Xenopus oocytes co-injected with cRNAs
Text: Two-electrode voltage-clamp current traces from a Xenopus oocyte injected with KCNQ5 cRNA. […] Starting from a holding potential of -80 mV cells were clamped for 2 seconds to voltages between -80 and +40 mV, in +10 mV steps, followed by a constant test pulse to -30 mV; • Figs. 4A-G show the electrophysiological properties of KCNQ5. Both the splice variant I (found in brain) and splice variant III (found in muscle) were expressed in Xenopus oocytes and examined by two-electrode voltage clamping. Both variants activate slowly upon depolarisation, but form I (4A) initially activates slower than the muscle form III (4B). Starting from a holding potential of -80 mV, the voltage was stepped for 0.8 seconds to values between -100 and + 40 mV in steps of 10 mV, followed by a voltage step to -30 mV (see inset, panel A). Channel activation by depolarization was fitted (for 2 sec. steps) by a sum of three exponential functions. For a step to +20 mV, the rate constants were ô1 = 37. 2 ± 2.2 ms, ô2 = 246 ± 17 ms, and ô3 = 1112 ± 91 ms for splice variant I, while these constants were ô1 = 24.5 ± 0.8 ms, ô2 = 163 ± 6 ms, and ô3 = 1690 ± 46 ms (± SEM, n=16). This difference in kinetics also results in different curves when a typical M-current protocol is used (4C, variant I; 4D, variant III). Variant I induces currents that kinetically resemble M-currents. […]

[2] = test system: KCNQ5 co-expressed with M1 receptors; test: KCNQ5 currents in Xenopus oocytes co-expressing M1 receptors (two-electrode voltage clamp); type: cell-based, human; conditions: 10 µM muscarine, 3 minutes after applying; Fig. 6
Text: Two-electrode voltage-clamp current traces from a Xenopus oocyte injected with KCNQ5 cRNA. […] Starting from a holding potential of -80 mV cells were clamped for 2 seconds to voltages between -80 and +40 mV, in +10 mV steps, followed by a constant test pulse to -30 mV; • Figs. 4A-G show the electrophysiological properties of KCNQ5. […] Starting from a holding potential of -80 mV, the voltage was stepped for 0.8 seconds to values between -100 and + 40 mV in steps of 10 mV, followed by a voltage step to -30 mV (see inset, panel A). Channel activation by depolarization was fitted (for 2 sec. steps) by a sum of three exponential functions. For a step to +20 mV, the rate constants were ô1 = 37. […] In this protocol, the membrane voltage is clamped for 1 second to voltages between -30 and -90 mV in steps of -10 mV, from a holding potential of -30 mV. This was followed by a step to -30 mV (panel C, inset). (4E, 4F), apparent open probabilities of variants I (4E) and variant III (4F) as a function of voltage obtained from tail current analysis as described in Methods. Mean values obtained from 12 oocytes are shown. […] For this fit, values at potentials more positive than +10 mV were excluded, as these are probably affected by a second (inactivation) gating process which leads to a decrease of apparent Popen at more positive potentials. (4G), ion selectivity of KCNQ5 currents (variant I). […]

T1 sequence (Q9NR82 36-932 limits assumed): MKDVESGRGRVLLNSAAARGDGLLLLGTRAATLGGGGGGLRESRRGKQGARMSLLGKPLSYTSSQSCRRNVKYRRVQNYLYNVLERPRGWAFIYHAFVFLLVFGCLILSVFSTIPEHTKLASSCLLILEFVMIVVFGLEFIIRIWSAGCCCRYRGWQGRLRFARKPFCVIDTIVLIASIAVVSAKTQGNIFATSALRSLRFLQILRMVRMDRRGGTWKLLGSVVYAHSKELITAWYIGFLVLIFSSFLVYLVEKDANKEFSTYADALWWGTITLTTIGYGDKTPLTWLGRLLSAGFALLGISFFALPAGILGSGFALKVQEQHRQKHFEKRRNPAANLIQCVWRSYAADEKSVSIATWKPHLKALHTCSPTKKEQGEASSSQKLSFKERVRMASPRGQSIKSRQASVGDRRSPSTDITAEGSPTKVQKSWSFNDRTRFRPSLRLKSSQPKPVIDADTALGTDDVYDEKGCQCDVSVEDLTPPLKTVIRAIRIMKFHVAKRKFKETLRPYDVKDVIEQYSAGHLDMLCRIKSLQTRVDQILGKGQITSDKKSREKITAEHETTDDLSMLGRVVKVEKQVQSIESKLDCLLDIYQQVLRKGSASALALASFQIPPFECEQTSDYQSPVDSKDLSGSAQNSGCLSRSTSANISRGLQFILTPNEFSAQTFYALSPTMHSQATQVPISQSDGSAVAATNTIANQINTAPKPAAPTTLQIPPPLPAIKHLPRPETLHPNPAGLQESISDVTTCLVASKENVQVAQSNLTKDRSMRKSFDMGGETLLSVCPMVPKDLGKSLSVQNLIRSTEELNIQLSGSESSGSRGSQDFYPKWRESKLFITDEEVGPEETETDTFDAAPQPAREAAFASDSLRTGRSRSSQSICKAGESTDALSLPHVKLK
Chain of KCNQ2/KCNQ3 channels (O43526 whole entry): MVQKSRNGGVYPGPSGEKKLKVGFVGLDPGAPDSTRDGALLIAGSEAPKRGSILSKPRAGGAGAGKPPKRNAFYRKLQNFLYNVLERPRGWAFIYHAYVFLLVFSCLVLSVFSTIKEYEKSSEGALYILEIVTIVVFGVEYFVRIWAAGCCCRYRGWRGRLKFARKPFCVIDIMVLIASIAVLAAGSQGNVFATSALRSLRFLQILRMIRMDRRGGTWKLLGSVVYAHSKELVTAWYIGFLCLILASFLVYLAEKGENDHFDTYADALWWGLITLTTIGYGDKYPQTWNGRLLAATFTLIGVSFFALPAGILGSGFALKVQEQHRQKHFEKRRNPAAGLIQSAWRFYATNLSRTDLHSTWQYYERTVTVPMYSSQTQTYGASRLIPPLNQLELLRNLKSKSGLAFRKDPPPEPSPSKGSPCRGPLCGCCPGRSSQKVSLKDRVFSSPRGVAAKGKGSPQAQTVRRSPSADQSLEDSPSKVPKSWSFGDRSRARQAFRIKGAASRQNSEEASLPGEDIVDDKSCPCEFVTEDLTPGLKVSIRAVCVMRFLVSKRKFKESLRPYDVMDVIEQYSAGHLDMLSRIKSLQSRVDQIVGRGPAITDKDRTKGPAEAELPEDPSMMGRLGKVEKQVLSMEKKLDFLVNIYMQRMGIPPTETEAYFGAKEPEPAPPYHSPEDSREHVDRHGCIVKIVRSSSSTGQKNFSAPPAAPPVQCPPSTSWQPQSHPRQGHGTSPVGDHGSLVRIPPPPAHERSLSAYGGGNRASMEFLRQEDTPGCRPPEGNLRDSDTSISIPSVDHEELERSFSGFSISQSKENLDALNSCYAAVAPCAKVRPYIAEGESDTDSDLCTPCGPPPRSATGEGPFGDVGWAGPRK
Chain of KCNQ2/KCNQ3 channels (O43525 whole entry): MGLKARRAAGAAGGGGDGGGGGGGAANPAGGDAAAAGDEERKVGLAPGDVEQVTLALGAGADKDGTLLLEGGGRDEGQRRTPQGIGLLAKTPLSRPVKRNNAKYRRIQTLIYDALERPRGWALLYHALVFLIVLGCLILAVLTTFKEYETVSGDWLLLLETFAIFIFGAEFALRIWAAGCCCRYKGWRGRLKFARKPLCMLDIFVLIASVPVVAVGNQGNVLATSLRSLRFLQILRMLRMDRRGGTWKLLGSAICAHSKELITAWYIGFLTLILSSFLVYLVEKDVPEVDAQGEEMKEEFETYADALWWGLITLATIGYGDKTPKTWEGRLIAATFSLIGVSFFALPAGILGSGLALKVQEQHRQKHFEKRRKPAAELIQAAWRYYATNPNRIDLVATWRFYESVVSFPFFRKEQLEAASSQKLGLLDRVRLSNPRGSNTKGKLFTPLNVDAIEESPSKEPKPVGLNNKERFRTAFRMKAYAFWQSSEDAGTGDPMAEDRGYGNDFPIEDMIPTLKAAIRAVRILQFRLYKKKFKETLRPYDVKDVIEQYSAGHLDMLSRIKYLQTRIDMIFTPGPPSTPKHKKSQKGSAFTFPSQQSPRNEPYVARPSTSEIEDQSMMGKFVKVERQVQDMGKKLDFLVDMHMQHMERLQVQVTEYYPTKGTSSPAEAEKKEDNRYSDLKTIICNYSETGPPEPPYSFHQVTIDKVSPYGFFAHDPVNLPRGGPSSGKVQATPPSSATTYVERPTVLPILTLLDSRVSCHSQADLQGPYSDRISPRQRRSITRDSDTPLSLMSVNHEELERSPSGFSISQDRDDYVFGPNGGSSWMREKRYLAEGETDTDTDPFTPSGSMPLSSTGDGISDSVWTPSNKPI
T2 sequence (Q9NR82 36-932 limits assumed): as the sequence (Q9NR82 36-932 limits assumed) above
T2 sequence (O43525 whole entry T323Y): as the sequence (O43525 whole entry) above, with T323Y counted along it

Which “inhibition of KCNQ5 currents” value (KCNQ5; 5 mM Ba++) does the source give for `[Ba+2]` [Ba^++] here?
Its value is “more than 80%”.

Which “inhibition of KCNQ2/KCNQ3 channels” value (KCNQ2/KCNQ3 channels) does the source give for `O=C1N(c2ccccc2)c2ccccc2C1(Cc1ccncc1)Cc1ccncc1` [Linopirdine, 1,3-dihydro-1-phenyl-3,3-bis-(4-pyridylmethyl)-2H-indol-2-one] here?
Its value is “nearly completely inhibits”.

What about the inhibition at 200 µM (KCNQ5; 200 µM Linopirdine in ND98) of the same molecule?
Its inhibition at 200 µM is roughly 80%.

What about the IC50 (KCNQ5) of the same molecule?
Its IC50 is 0.051 ± 0.005 mM.

For `O=C(O)c1cccnc1Nc1cccc(C(F)(F)F)c1` [Niflumic acid], which “shift of the voltage dependence of the apparent popen towards negative potentials” value (KCNQ5; 500 µM niflumic acid, Fig. 5B) is on record?
The value was “about 20 mV”.

For `CC[N+](CC)(CC)CC` [TEA], which IC50 (KCNQ5) is on record?
Its IC50 is 71 ± 17 mM.

What about the IC50 [1] of the same molecule?
The IC50 was roughly 30 mM.

For `C[C@@H]1O[C@H](C[N+](C)(C)C)C[C@H]1O` [muscarine], which “effect on KCNQ5 currents” value (KCNQ5) is on record?
Its value is “No effect”.

What about the “effect on KCNQ5 currents by stimulating co-expressed M1 receptors” value [2] of the same molecule?
The value was “inhibition of KCNQ5 currents”.

With `C[N+](C)(C)CC#CCN1CCCC1=O` [oxotremorine methiodide] as the molecule, how does the “effect on KCNQ5 currents” value (KCNQ5) read?
Its value is “No effect”.

From patent publication EP1194447B1, “NOVEL POTASSIUM CHANNELS AND GENES ENCODING THESE POTASSIUM CHANNELS” (NEUROSEARCH A/S, priority 1999, dated 2000)
